In patent publication US20140350081A1, “INSECT G-COUPLED RECEPTORS USEFUL AS TARGETS FOR INSECTICIDES AND COMPOUNDS AND REAGENTS IDENTIFIED USING THE SAME” (priority 2011, published 2014):
Where two headings read alike, the source gives them in different places.

What was measured:
[1] = molecular target: T1, Isdop1 (Ixodes scapularis, UniProt A0ACM8FJJ0); experiment: cAMP accumulation in HEK 293 cells transiently expressing Isdop1; assay type: cell-based; details: for Stimulatory response (fold-over-basal) Isdop1: 10 μM biogenic amine, 300 nM propranolol, cAMP accumulation, mean±standard error
[2] = molecular target: T2, Isdop2 (Ixodes scapularis, UniProt A0ACM8DGL0); experiment: cAMP accumulation confirmation assay, cells stably expressing Isdop2; assay type: cell-based
[3] = molecular target: T1, Isdop1; experiment: cAMP accumulation confirmation assay, cells stably expressing Isdop1; assay type: cell-based
[4] = molecular target: T2, Isdop2; experiment: cAMP accumulation in HEK 293 cells transiently expressing Isdop2; assay type: cell-based; details: for Stimulatory response (fold-over-basal) Isdop2: 10 μM biogenic amine, 300 nM propranolol, cAMP accumulation, mean±standard error
[5] = molecular target: AaDOP1 (Aedes aegypti, UniProt H6D5H1); experiment: CRELuc reporter dose-response in HEK293 cells stably expressing AaDOP1; assay type: cell-based; details: HEK293 cells stably expressing CRELuc reporter and AaDOP1; ≧10 μM = lacks intrinsic activity
[6] = molecular target: T3, AaDOP2 (Aedes aegypti, UniProt H6D5H2); experiment: CRELuc reporter dose-response in HEK293 cells stably expressing AaDOP2; assay type: cell-based
[7] = molecular target: T2, Isdop2; experiment: cell-based; details: read-out: % Inhibition (of response to dopamine), Isdop2 screen
[8] = molecular target: T3, AaDOP2; experiment: LOPAC1280 antagonist screen in HEK-CRELuc-Aadop2 cells; assay type: cell-based
[9] = test system: Ae. aegypti L3 larvae; experiment: Ae. aegypti L3 concentration response and time course assays; assay type: in vivo, Aedes aegypti; details: for LT50: 400 μM, L3 larval time course assay
Method: Briefly, chemistries were diluted to appropriate concentration in water and added to the wells of 24-well plates containing 5 L3 stage Ae. aegypti larvae to achieve a final concentration of 400, 200, 100, 50 and 25 μM in 1 ml sterile RO water. Chemistries were tested in quadruplicate at each concentration. […] Results reported here represent a minimum of three independent CRC experiments (i.e., n=3).

[10] = molecular target: T3, AaDOP2; experiment: HTRF cAMP accumulation concentration response assay (Cisbio Dynamic 2); assay type: cell-based; details: AaDOP2 expressing cells in the presence of dopamine; No Inhibition = <10% inhibition at 3 μM test compound; read-out: IC50 ± S.E.M. (nM), HTRF cAMP assay
[11] = test system: Ae. aegypti L3 larvae; experiment: whole plant or invertebrate; details: Aedes aegypti
[12] = test system: adult Reticulitermes flavipes; experiment: Termite immersion assay; assay type: in vivo; details: in vivo
Source text: A series of whole organism bioassays was developed to further evaluate the toxicity of chemistries to a range of agricultural, veterinary and public health pests and non-target insects (Tables 12 and 13). These assays are designed to rapidly explore the biological activity spectrum of chemistries as well as to facilitate initial investigations of the mode of action of insecticidal compounds. Briefly, assays were developed for the German cockroach (Blatella germanica, urban pest), termite (Reticulitermes flavipes; urban pest), lone star tick (Amblyomma americana; veterinary and public health pest), soybean aphid (Aphis glycines, agricultural pest) and honeybee (Apis mellifera; beneficial, non-target insect). The assays were designed to test the toxicity and speed of kill of multiple chemistries on contact. Each of these assays was performed as a single point dose experiment in triplicate using either topical application of compound to the ventral thorax (1 μl of a […] compound solution in 1:1 v:v DMSO:EtOH vehicle; 50-80 μg effective dose depending on compound) as is the case for our cockroach and honeybee assays, or 10 second immersion in a solution of the compound diluted in water or DMSO:[…] The assays were conducted in 24-well plate format with mortality assessment following incubation at 22° C. as described above. Commercial insecticides were incorporated in these assays to provide a positive control and permit initial comparative analyses. Lead chemistries identified in our in vivo screen have been evaluated in the cockroach and termite assays.

[13] = test system: adult male Blatella germanica; experiment: Cockroach assay of Table 16 (title contact assay, text feeding assay); assay type: in vivo; details: 200 mM compound
Source text: (§1) A series of whole organism bioassays was developed to further evaluate the toxicity of chemistries to a range of agricultural, veterinary and public health pests and non-target insects (Tables 12 and 13). These assays are designed to rapidly explore the biological activity spectrum of chemistries as well as to facilitate initial investigations of the mode of action of insecticidal compounds. Briefly, assays were developed for the German cockroach (Blatella germanica, urban pest), termite (Reticulitermes flavipes; urban pest), lone star tick (Amblyomma americana; veterinary and public health pest), soybean aphid (Aphis glycines, agricultural pest) and honeybee (Apis mellifera; beneficial, non-target insect). The assays were designed to test the toxicity and speed of kill of multiple chemistries on contact. Each of these assays was performed as a single point dose experiment in triplicate using either topical application of compound to the ventral thorax ([…]; 50-80 μg effective dose depending on compound) as is the case for our cockroach and honeybee assays, or 10 second immersion in a solution of the compound diluted in water or DMSO:EtOH to a final concentration of 100 μM. The assays were conducted in 24-well plate format with mortality assessment following incubation at 22° C. as described above. Commercial insecticides were incorporated in these assays to provide a positive control and permit initial comparative analyses. Lead chemistries identified in our in vivo screen have been evaluated in the cockroach and termite assays.

[14] = test system: adult male Blatella germanica; experiment: Cockroach contact assay (topical application); assay type: in vivo; details: 200 mM compound
Source text: as §1

[15] = molecular target: T2, Isdop2; experiment: CRE-Luc reporter assay, HEK cells stably expressing Isdop2; assay type: cell-based
[16] = molecular target: T1, Isdop1; experiment: CRE-Luc reporter assay, HEK cells stably expressing Isdop1; assay type: cell-based
[17] = molecular target: T3, AaDOP2; experiment: AaDOP2 agonist screen against the LOPAC1280 library; assay type: cell-based; details: 10 μM compound; percent of response to 1 μM dihydrexidine
[18] = test system: Ae. aegypti L3 larvae; details: 400 μM, three independent experiments
[19] = 10 μM antagonist with 1 μM dopamine
[20] = 0.5 h, read-out: mortality of the mosquito population within 30 minutes, 400 μM, L3 larvae
[21] = 0.5 h, read-out: percent mortality 0.5 hr, 400 uM, L3 larvae, value for this scoring time
[22] = 1 h, read-out: percent mortality 1 hr, 400 uM, L3 larvae, per scoring time
[23] = 2 h, read-out: percent mortality 2 hr, 400 uM, L3 larvae, per scoring time
[24] = 3 h, read-out: percent mortality 3 hr, 400 uM, L3 larvae, per scoring time
[25] = 4 h, read-out: percent mortality 4 hr, 400 uM, L3 larvae, per scoring time
[26] = 24 h, read-out: percent mortality 24 hr, 400 uM, L3 larvae, per scoring time
[27] = 48 h, read-out: Toxicity to Aedes aegypti larvae (mortality) 48 hours, 400 μM, L3 larvae, three independent experiments
[28] = 48 h, read-out: percent mortality 48 hr, 400 uM, L3 larvae, per scoring time
[29] = 72 h, read-out: Cumulative % Mortality (72 hrs), 400 uM, L3 larvae
[30] = 72 h, read-out: Toxicity to Aedes aegypti larvae (mortality) 72 hours, 400 μM, L3 larvae, three independent experiments
[31] = 72 h, read-out: percent mortality 72 hr, 400 uM, L3 larvae, per scoring time

T3 sequence (H6D5H2 entry or part of it): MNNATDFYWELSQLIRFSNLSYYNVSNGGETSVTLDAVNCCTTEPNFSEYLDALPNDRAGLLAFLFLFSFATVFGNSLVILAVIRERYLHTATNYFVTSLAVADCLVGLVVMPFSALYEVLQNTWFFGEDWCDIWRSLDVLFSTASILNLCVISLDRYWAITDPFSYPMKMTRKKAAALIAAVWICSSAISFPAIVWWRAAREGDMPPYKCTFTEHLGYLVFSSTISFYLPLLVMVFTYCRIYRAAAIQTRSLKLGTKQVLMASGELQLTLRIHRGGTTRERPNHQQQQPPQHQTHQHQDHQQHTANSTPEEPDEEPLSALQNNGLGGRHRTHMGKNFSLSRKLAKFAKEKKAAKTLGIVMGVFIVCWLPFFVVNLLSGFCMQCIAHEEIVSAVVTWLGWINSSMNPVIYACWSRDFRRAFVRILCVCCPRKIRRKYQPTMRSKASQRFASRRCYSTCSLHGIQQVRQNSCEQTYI
T2 sequence (A0ACM8DGL0 entry or part of it): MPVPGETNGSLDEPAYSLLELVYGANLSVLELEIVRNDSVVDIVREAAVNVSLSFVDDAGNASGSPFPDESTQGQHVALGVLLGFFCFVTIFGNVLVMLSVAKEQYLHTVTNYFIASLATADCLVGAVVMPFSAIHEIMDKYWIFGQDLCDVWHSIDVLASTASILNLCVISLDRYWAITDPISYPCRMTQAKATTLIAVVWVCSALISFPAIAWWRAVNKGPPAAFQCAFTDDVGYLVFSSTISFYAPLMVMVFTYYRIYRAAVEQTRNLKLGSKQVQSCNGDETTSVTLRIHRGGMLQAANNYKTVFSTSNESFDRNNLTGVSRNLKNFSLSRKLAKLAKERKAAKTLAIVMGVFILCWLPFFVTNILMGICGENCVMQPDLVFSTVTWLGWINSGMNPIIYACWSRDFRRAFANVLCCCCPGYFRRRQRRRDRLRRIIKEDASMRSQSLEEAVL
Chain of AaDOP1 (H6D5H1 entry or part of it): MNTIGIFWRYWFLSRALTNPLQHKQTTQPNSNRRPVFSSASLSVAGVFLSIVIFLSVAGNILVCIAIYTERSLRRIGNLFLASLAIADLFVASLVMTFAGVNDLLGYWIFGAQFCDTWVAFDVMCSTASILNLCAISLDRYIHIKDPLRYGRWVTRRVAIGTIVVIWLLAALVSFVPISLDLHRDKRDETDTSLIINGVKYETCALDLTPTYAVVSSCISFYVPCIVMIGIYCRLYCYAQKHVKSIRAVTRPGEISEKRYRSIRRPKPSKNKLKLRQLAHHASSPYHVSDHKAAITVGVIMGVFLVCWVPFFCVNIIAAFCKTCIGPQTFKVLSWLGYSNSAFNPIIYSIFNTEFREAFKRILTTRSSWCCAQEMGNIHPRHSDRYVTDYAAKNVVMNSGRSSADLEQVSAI

| SMILES | Stimulatory response (fold-over-basal) Isdop1 [1] [fold-over-basal] | Stimulatory response (fold-over-basal) Isdop2 [4] [fold-over-basal] | LT50 [9] [min] | IC50 [10] [nM] | mortality at 400 µM [11, 20] [%] | mortality at 400 µM [11, 21] [%] | mortality at 400 µM [11, 22] [%] | mortality at 400 µM [11, 23] [%] | mortality at 400 µM [11, 24] [%] | mortality at 400 µM [11, 25] [%] | mortality at 400 µM [11, 26] [%] | mortality at 400 µM [11, 27] [%] | mortality at 400 µM [11, 28] [%] | mortality at 400 µM [11, 29] [%] | mortality at 400 µM [11, 30] [%] | mortality at 400 µM [11, 31] [%] | % Mortality 24 hrs [13] [%] | % Mortality 48 hrs [13] [%] | % Mortality 72 hrs [13] [%] | % Mortality 120 hrs [13] [%] | other results |
| --- | --- | --- | --- | --- | --- | --- | --- | --- | --- | --- | --- | --- | --- | --- | --- | --- | --- | --- | --- | --- | --- |
| CC(C)(C)[C@]1(O)CCN2CC3c4ccccc4CCc4cccc(c43)[C@@H]2C1 (single isomer, unassigned; (+)) [(+)-Butaclamol, 3-(1,1-dimethylethyl)-2,3,4,4a,8,9,13b,14-octahydro-1H-benzo[6,7]cyclohepta[1,2,3-de]pyrido[2,1-a]isoquinolin-3-ol] | – | – | – | – | – | – | – | – | – | – | – | – | – | – | – | – | – | – | – | – | effect on dopamine-stimulated cAMP, Isdop1 [1, 19]: did not cause a similar response; IC50 [2]: 0.32 µM; IC50 [3]: 3.5 µM; effect on dopamine-stimulated cAMP, Isdop2 [4, 19]: antagonistic effects |
| NCC(O)c1ccc(O)cc1 (racemic) [Octopamine] | 1.01 ± 0.07 | 1.20 ± 0.24 | – | – | – | – | – | – | – | – | – | – | – | – | – | – | – | – | – | – | EC50 [5]: ≥ 10 µM; EC50 [6]: ≥ 10 µM |
| CCNC(=O)N1CCN(CCCC(c2ccc(F)cc2)c2ccc(F)cc2)CC1 [Amperozide, 4-[4,4-bis(4-fluorophenyl)butyl]-N-ethylpiperazine-1-carboxamide] | – | – | 42 | 570 ± 110 | > 70 | 90 | 0 | 0 | 0 | 0 | 0 | 93 | 0 | 100 | 93 | 0 | 0 | 0 | 3 | 7 | inhibition at 10 µM [7]: 69%; % of the SCH23390 effect ([8]; 10 μM compound, 300 nM dopamine, quadruplicate): 83%; % inhibition of DA activity (Aedes cell-based assay screen) ([8]; LOPAC1280 screen hits): 83%; mortality of adult termites [12]: 70-100%; % Mortality 24 hrs [14]: 0%; % Mortality 48 hrs [14]: 0%; % Mortality 72 hrs [14]: 0%; % Mortality 120 hrs [14]: 5%; % Mortality 240 hrs [14]: 5% |
| CNC[C@H](O)c1ccc(O)c(O)c1 [Epinephrine] | – | – | – | – | – | – | – | – | – | – | – | – | – | – | – | – | – | – | – | – | EC50 [15]: 3.5 ± 1 µM; EC50 [16]: 1.9 ± 0.3 µM; behaviour at the AaDOP2 receptor in follow up CRCs ([6]; HEK 293-CRELuc cells, FIG. 21A): partial agonists; % of DHX [17]: 90% |
| CN1CC2c3ccccc3Oc3ccc(Cl)cc3C2C1 (stereo not shown) [Asenapine] | – | – | 30 | 0.3 ± 0.06 | > 70 | 70 | 20 | 10 | 0 | 0 | 0 | 100 | 0 | 100 | 100 | 0 | 17 | 20 | 27 | 27 | LC50 ([9]; Aedes aegypti): 40 µM; Toxicity to Aedes aegypti larvae (mortality) 24 hours [18]: 100%; mortality at 400 µM ([11]; […], read-out: percent mortality […], 400 uM, L3 larvae, per scoring time): 0%; % Mortality 24 hrs [14]: 5%; % Mortality 48 hrs [14]: 5%; % Mortality 72 hrs [14]: 10%; % Mortality 120 hrs [14]: 10%; % Mortality 240 hrs [14]: 10% |
| NCCc1c[nH]c2ccc(O)cc12 [Serotonin, 5-hydroxytryptamine] | 1.06 ± 0.08 | 1.52 ± 0.20 | – | – | – | – | – | – | – | – | – | – | – | – | – | – | – | – | – | – | – |
